pIC50: −log10 of the molar value.

Data set [1] deals with human melatonin 1 receptors (human MT1 receptors) (Homo sapiens (Human), UniProt P48039). As to the kind of experiment: Melatonin receptor binding assay, 2-[125I] Iodomelatonin, CHO-hMelR7 cell membrane fraction. To be noted: binding inhibition of 2-[125I] Iodomelatonin, CHO-hMelR7 membranes, 25° C., 2.5 hr. How it is done:
(§1) Melatonin Receptor Binding Assay
(1) Preparation of CHO-hMelR7 Cells Expressing Human Melatonin 1 Receptors
(§2) (3) Preparation of Cell Membrane Fraction of CHO Cell (CHO-hMelR7 and CHO-hMT2) Stably Expressing Human MT1 and MT2 Receptors
(§3) CHO-hMelR7 and CHO-hMT2 cells were plated using Cellfactory (Nunc, #170009) under the conditions of 1×10^8 cells/2000 mL/flask. The cells were grown to confluent, and recovered by the following method. As the medium for CHO-hMelR7 and CHO-hMT2, MEM α containing 10% FBS and penicillin/streptomycin was used. […] of geneticin was added to the medium for CHO-hMT2.
(§4) The medium was discarded, cells were washed twice with 200 mL of EDTA/PBS(−), 200 mL of EDTA/PBS(−) was further added, and the cells were stood still at room temperature for 20 min until they were released. […] The mixture was further centrifuged at 1,500 rpm for 10 min at 4° C., and the obtained pellets were suspended in 20 mL of ice-cooled homogenizing buffer [10 mM NaHCO3, 5 mM EDTA, Protease inhibitor Complete (Roche), pH 7.4]. The cell suspension was homogenized 3 times using a polytron homogenizer at 20,000 rpm for 30 sec. The obtained homogenate was centrifuged (2,000 rpm, 10 min, 4° C.) using a low speed cooling centrifuge. The supernatant was recovered in an ultracentrifugation tube and ultracentrifuged (40,000 rpm, 60 min, 4° C.) using an ultracentrifuge (Beckman, L-90K). To the obtained pellets was added a suspending buffer [50 mM Tris-HCl, 1 mM EDTA, Protease inhibitor Complete (Roche), pH 7.4], and the pellets were suspended by pipetting. The protein concentration of this suspension was measured, diluted to 2 mg/mL to give cell membrane fractions of CHO-hMelR7 and CHO-hMT2 cells. […] Protein was quantified using BCA protein assay kit (Pierce) with BSA as the standard.
(§5) (4) Preparation of Membrane Fraction Suspension
(§6) Immediately before use, the membrane fractions of CHO-hMelR7 and CHO-hMT2 cells of the above-mentioned (3) were diluted 20-fold with assay buffer (50 mM Tris-HCl, pH 7.7).
(§7) Iodomelatonin (#NEX236, PerkinElmer) was diluted with the assay buffer to 400 pM for MT1 and 1 nM for MT2.
(§8) Then, a test compound (compound solution diluted with DMSO to 200-fold of the final measurement concentration) was added by 2 μL. 2 μL of DMSO was added to each well of the total binding control section, and 100 μM cold Melatonin solution (Sigma, diluted with DMSO to 100 μM) was added to each well of the nonspecific binding control section by 2 μL. Then, the membrane fraction suspension (100 μL) was added. […] Iodomelatonin solution of the above-mentioned (5) was added to each well mentioned above by 20 μL, and a binding reaction was carried out at 25° C. for 2.5 hr in a micromixer (TAITEC, Bioshaker M.BR-024).
(§9) Using a cell harvester (PerkinElmer), the binding reaction mixture in each well of the 96-well plate was transferred to a treated (immersed in 50 mM Tris, pH 7.7 in advance) filter plate (UniFilter GF/C, PerkinElmer) and filtered. After filtration, the plate was washed 4 times with the assay buffer, and dried in a dryer (42° C.) for 2 hr or more. 25 μL of a liquid scintillator (MicroScint O, PerkinElmer) was added to each well of the filter plate after drying, and the luminescence of scintillator was measured by TopCount (PerkinElmer) for 1 min.
(§10) Specific binding is a value obtained by subtracting nonspecific binding from the total binding. The binding inhibitory activity of the test compound is shown by the ratio of the value obtained by subtracting the measurement value when the test compound was added from the total binding, to the specific binding.

Data set [2] has as its target human melatonin 2 receptors (human MT2 receptors) (Homo sapiens (Human), UniProt P49286). As to the kind of experiment: Melatonin receptor binding assay, 2-[125I] Iodomelatonin, CHO-hMT2 cell membrane fraction. The settings on record: binding inhibition of 2-[125I] Iodomelatonin, CHO-hMT2 membranes, 25° C., 2.5 hr. How it is done: as §1
(2) Preparation of CHO-hMT2 Cells Expressing Human Melatonin 2 Receptors
CHO-K1 cells (ATCC, #CCL-61) were plated at the concentration of 1.5×10^5 cells/cm^2 in a 6 well plate (ASAHI TECHNO GLASS), and cultured under the conditions of 37° C., 5% CO2 for 24 hr.
as §2, §3, §4, §5, §6, §7, §8, §9, §10

Sequence of human melatonin 2 receptors (human MT2 receptors) (P49286 whole entry): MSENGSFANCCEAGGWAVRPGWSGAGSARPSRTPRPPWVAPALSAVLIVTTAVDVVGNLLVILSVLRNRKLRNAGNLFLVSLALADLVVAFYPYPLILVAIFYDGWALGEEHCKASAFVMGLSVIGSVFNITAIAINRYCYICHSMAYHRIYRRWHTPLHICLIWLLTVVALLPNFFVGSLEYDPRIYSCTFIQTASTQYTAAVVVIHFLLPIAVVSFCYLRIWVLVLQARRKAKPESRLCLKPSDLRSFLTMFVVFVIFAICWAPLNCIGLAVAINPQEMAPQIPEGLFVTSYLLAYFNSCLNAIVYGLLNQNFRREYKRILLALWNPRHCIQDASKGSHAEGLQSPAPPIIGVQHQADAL
Sequence of human melatonin 1 receptors (human MT1 receptors) (P48039 whole entry): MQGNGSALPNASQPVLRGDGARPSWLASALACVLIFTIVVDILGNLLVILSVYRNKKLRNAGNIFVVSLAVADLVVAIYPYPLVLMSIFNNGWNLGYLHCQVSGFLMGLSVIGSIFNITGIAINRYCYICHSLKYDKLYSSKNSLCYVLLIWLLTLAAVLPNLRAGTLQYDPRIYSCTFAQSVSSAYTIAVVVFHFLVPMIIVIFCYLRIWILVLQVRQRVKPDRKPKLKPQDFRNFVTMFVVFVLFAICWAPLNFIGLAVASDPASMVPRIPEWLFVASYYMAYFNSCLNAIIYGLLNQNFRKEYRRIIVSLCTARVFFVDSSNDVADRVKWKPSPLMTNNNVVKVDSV

One may read the melting point as the temperature of the solid-liquid transition. As to `CCC(=O)NCC=C1CCc2ccc3ncoc3c21` [Example 2, N-[2-(6,7-Dihydro-8H-indeno[5,4-d][1,3]oxazol-8-ylidene)ethyl]propionamide], the melting point fell in the range of 148 to 150 °C.

As usually defined, the pIC50 is −log10 of the IC50, conventionally taken in molar units. For the molecule `CC(=O)NCC=C1CCc2ccc3nc(C)oc3c21` [Example 3, N-[2-(2-Methyl-6,7-dihydro-8H-indeno[5,4-d][1,3]oxazol-8-ylidene)ethyl]acetamide], the melting point was 188 to 190 °C. In data set [1], the negative logarithm of the IC50 (pIC50) was 9.48. The same molecule gave a pIC50 in data set [2] of 9.43.

As to `CC(=O)NCCC1=CCc2ccc3nc(C)oc3c21` [Example 4, N-[2-(2-Methyl-6H-indeno[5,4-d][1,3]oxazol-8-yl)ethyl]acetamide], the melting point lay within 154 to 156 °C. This molecule gave a pIC50 in data set [1] of 10.17. Also, the pIC50 in data set [2] was 9.62.

Regarding `CCC(=O)NCC=C1CCc2ccc3nc(C)oc3c21` [Example 5, N-[2-(2-Methyl-6,7-dihydro-8H-indeno[5,4-d][1,3]oxazol-8-ylidene)ethyl]propionamide], the melting point was 214 to 216 °C. This molecule had a pIC50 in data set [1] of 9.60. The molecule also had a pIC50 in data set [2] of 9.66.

In the case of `CC(=O)NCC=C1CCc2ccc3nc(CCCCc4ccccc4)oc3c21` [Example 6, N-{2-[2-(4-Phenylbutyl)-6,7-dihydro-8H-indeno[5,4-d][1,3]oxazol-8-ylidene]ethyl}acetamide], the melting point fell in the range of 113 to 115 °C. The pIC50 in data set [1] was 10.10. The molecule also had a pIC50 in data set [2] of 9.37.

Molecule `CCC(=O)NCC=C1CCc2ccc3nc(CCCCc4ccccc4)oc3c21` [Example 7, N-{2-[2-(4-Phenylbutyl)-6,7-dihydro-8H-indeno[5,4-d][1,3]oxazol-8-ylidene]ethyl}propionamide] came in with a melting point of 111 to 113 °C.

`CC(=O)NCC=C1CCc2ccc3nc(C)sc3c21` [Example 8, N-[2-(2-Methyl-6,7-dihydro-8H-indeno[5,4-d][1,3]thiazol-8-ylidene)ethyl]acetamide] showed a melting point of 184 to 186 °C. Besides, in data set [1], the pIC50 is 9.72. In addition, the pIC50 in data set [2] was 9.66.

Regarding `CC(=O)NCCC1CCc2ccc3ncoc3c21` (stereo not drawn) [Example 9, N-[2-(7,8-Dihydro-6H-indeno[5,4-d][1,3]oxazol-8-yl)ethyl]acetamide], the pIC50 in data set [1] was 9.06; in data set [2], 9.51.

The molecule `CCC(=O)NCCC1CCc2ccc3ncoc3c21` (stereo not drawn) [Example 10, N-[2-(7,8-Dihydro-6H-indeno[5,4-d][1,3]oxazol-8-yl)ethyl]propionamide] gave a melting point of 89 to 90 °C.

For `CC(=O)NCCC1CCc2ccc3nc(C)oc3c21` (stereo not drawn) [Example 11, N-[2-(2-Methyl-7,8-dihydro-6H-indeno[5,4-d][1,3]oxazol-8-yl)ethyl]acetamide], the pIC50 in data set [1] was 9.82; in data set [2], 9.51.

As for `CC(=O)NCC[C@H]1CCc2ccc3nc(C)oc3c21` [Example 13, (R)-N-[2-(2-Methyl-7,8-dihydro-6H-indeno[5,4-d][1,3]oxazol-8-yl)ethyl]acetamide], the figures for the pIC50 in data set [1] and in data set [2] were 7.82 and 8.02, respectively.

For the molecule `CCC(=O)NCCC1CCc2ccc3nc(C)oc3c21` (stereo not drawn) [Example 14, N-[2-(2-Methyl-7,8-dihydro-6H-indeno[5,4-d][1,3]oxazol-8-yl)ethyl]propionamide], the pIC50 in data set [1] is 9.89; in data set [2] it was 9.55.

As to `CCC(=O)NCC[C@H]1CCc2ccc3nc(C)oc3c21` [Example 16, (R)-N-[2-(2-Methyl-7,8-dihydro-6H-indeno[5,4-d][1,3]oxazol-8-yl)ethyl]propionamide], the pIC50 in data set [1] is 7.96; in data set [2], 8.21.

As to `CC(=O)NCCC1CCc2ccc3nc(CCCCc4ccccc4)oc3c21` (stereo not drawn) [Example 17, N-{2-[2-(4-Phenylbutyl)-7,8-dihydro-6H-indeno[5,4-d][1,3]oxazol-8-yl]ethyl}acetamide], the pIC50 is 10.66 in data set [1] and 10.04 in data set [2].

In the case of `CC(=O)NCC[C@H]1CCc2ccc3nc(C)sc3c21` [Example 21, (R)-N-[2-(2-Methyl-7,8-dihydro-6H-indeno[5,4-d][1,3]thiazol-8-yl)ethyl]acetamide], the figures for the pIC50 in data set [1] and in data set [2] were 7.72 and 8.07, respectively.

The molecule `CCc1nc2ccc3c(c2o1)C(CCNC(C)=O)CC3` (stereo not drawn) [Example 22, N-[2-(2-Ethyl-7,8-dihydro-6H-indeno[5,4-d][1,3]oxazol-8-yl)ethyl]acetamide] returned a melting point of 76 to 78 °C. Moreover, the pIC50 in data set [1] was 9.44. In data set [2], this molecule showed a pIC50 of 9.39.

In turn, `CC(=O)NCCC1CCc2ccc3nc(CO)oc3c21` (stereo not drawn) [Example 23, N-{2-[2-(Hydroxymethyl)-7,8-dihydro-6H-indeno[5,4-d][1,3]oxazol-8-yl]ethyl}acetamide] gave a melting point of 132 to 134 °C.

Regarding `CC(=O)NCCC1CCc2ccc3nc(C(F)(F)F)oc3c21` (stereo not drawn) [Example 25, N-{2-[2-(Trifluoromethyl)-7,8-dihydro-6H-indeno[5,4-d][1,3]oxazol-8-yl]ethyl}acetamide], the melting point was 114 to 116 °C.

`CC(=O)CCc1nc2ccc3c(c2o1)C(CCNC(C)=O)CC3` (stereo not drawn) [Example 28, N-{2-[2-(3-Oxobutyl)-7,8-dihydro-6H-indeno[5,4-d][1,3]oxazol-8-yl]ethyl}acetamide] showed a melting point of 111 to 112 °C.

`CC(=O)NCCC1CCc2ccc3nc(-c4ccccc4)oc3c21` (stereo not drawn) [Example 30, N-[2-(2-Phenyl-7,8-dihydro-6H-indeno[5,4-d][1,3]oxazol-8-yl)ethyl]acetamide] showed a melting point of 124 to 126 °C.

In turn, `CC(=O)NCCC1CCc2ccc3nc(CCc4ccccc4)oc3c21` (stereo not drawn) [Example 32, N-{2-[2-(2-Phenylethyl)-7,8-dihydro-6H-indeno[5,4-d][1,3]oxazol-8-yl]ethyl}acetamide] showed a melting point of 85 to 87 °C.

As to `CC(=O)NCCC1CCc2ccc3nc(CCCc4ccccc4)oc3c21` (stereo not drawn) [Example 33, N-{2-[2-(3-Phenylpropyl)-7,8-dihydro-6H-indeno[5,4-d][1,3]oxazol-8-yl]ethyl}acetamide], the melting point is 95 to 97 °C.

The molecule `CSc1nc2ccc3c(c2o1)C(CCNC(C)=O)CC3` (stereo not drawn) [Example 39, N-{2-[2-(Methylthio)-7,8-dihydro-6H-indeno[5,4-d][1,3]oxazol-8-yl]ethyl}acetamide] returned a melting point of 115 to 117 °C.

Molecule `Cc1nc2ccc3c(c2o1)C(CCNC(=O)c1ccccc1)CC3` (stereo not drawn) [Example 44, N-[2-(2-Methyl-7,8-dihydro-6H-indeno[5,4-d][1,3]oxazol-8-yl)ethyl]benzamide] showed a melting point of 73 to 76 °C.

Regarding `CCNC(=O)NCCC1CCc2ccc3nc(C)oc3c21` (stereo not drawn) [Example 46, 1-Ethyl-3-[2-(2-methyl-7,8-dihydro-6H-indeno[5,4-d][1,3]oxazol-8-yl)ethyl]urea], the melting point lay within 136 to 138 °C.

On to `CC(=O)NCCC1=C(C(C)C)Cc2ccc3nc(C)oc3c21` [Example 49, N-[2-(7-Isopropyl-2-methyl-6H-indeno[5,4-d][1,3]oxazol-8-yl)ethyl]acetamide], for which the melting point fell in the range of 135 to 138 °C.

For the origin of these results see patent publication US8552037B2, “Tricyclic compound and pharmaceutical use thereof” (Takeda Pharmaceutical Company Limited, priority 2006, dated 2013).
